# “Also recorded” adds a separate entry of the source.
# B1: unfolded K5: unfolded K5(3-89 Active Zone)frag SEQ ID NO:1 kringle, control (protein)
# chain: SEEDCMFGNGKGYRGKRATTVTGTPCQDWAAQEPHRHSIFTPETNPRAGLEKNYCRNPDGDVGGPWCYTTNPRKLYDYCDVPQCAAPKS
# modifications: unfolded; Synthetic Peptide K5(3-89 Active Zone)
# Tests used:
# [1] = test system: mouse breast cancer cells, 4T1; test: WST-8 proliferation assay, 4T1 (5 day); format: cell-based; settings: 120 h, GRP78 10 ug/ml, 5 days, read-out: Proliferation Inhibition (5 day) IC50, Mouse Breast Cancer 4T1
# [2] = test system: BT549 human breast cancer cells; test: WST-8 proliferation assay, BT549 (5 day); format: cell-based; settings: BT-549, 120 h, GRP78 10 ug/ml, 5 days, read-out: Proliferation Inhibition (5 day) IC50, Breast Cancer BT549
# Method: The inhibition effect of GRP78 antagonist on metastatic triple-negative, chemo-resistant BT549 cells was assessed using a proliferation assay.
# [3] = test system: chemo-resistant colon cancer cells (DLD-1); test: WST-8 proliferation assay, DLD-1 (5 day); format: cell-based; settings: Homo sapiens, DLD-1, 120 h; GRP78 10 ug/ml, 5 days; read-out: Proliferation Inhibition (5 day) IC50, Colon Cancer DLD-1
# GRP78 = molecular target: T1, GRP78 (Homo sapiens, UniProt P11021); test: GRP78 ELISA, direct binding of biotin-labelled kringles; settings: FIG. 19A
# T1 construct: purchased StressMarq
# Description: Recombinant K5-fragment biotin and Kr1 fragment-biotin were used for binding. Neutra-avidin-HRP was used to detect binding after washing with PBS.
# To determine if ROR1 is expressed on immature dendritic cells, CD14^+ cells were isolated from human PBMCs and cultured in GM-CSF, and IL-4 for 7 days to produce immature DCs. […] This flow cytometry analysis supports the hypothesis that immature dendritic cells express ROR1 in which the ROR1 kringle domain binds to GRP78.
# Comparison of GRP78 binding for the two kringle domains was performed by a GRP78 ELISA. GRP78 (StressMarq) (1 ug/ml@ 100 μl/well) was bound to a tissue culture coated 96 well plate overnight at 4° C. After washing 3× with PBS, the plates were blocked with superblock (Pierce) for 1 hour at room temperature. […] The plate was then washed 3× with PBS again and Neutra-avidin-HRP was added to the wells for 1 hour at room temperature. The wells were washed again with PBS and one step TMB (Pierce) was added to the wells with absorbance recorded after 30 minutes to measure kringle binding. […] To analyze these peptides for binding to GRP78, we used a 96 well competition binding assay. The assay consisted of binding GRP78 to a tissue coated 96 well plate as listed above. […] After the plate was washed, Neutra-avidin-HRP was added and bound K5 was measured by adding HRP substrate, TMB, as listed above.
# [4] = test system: MDA231 breast carcinoma cells; test: Tumor cell proliferation assay 72 hours, MDA231; format: cell-based
# Method: (§1) For the proliferation assay, cells were plated in 96 well plates at approximately 3000 cells per well overnight. The media was removed and fresh media with 1% FBS containing 10 μg/ml GRP78 was added along with the GRP78 antagonists. The plates were incubated for 72 hours at 37 C in 8% CO2. After 72 hours, cell number was determined with a WST-8 cell proliferation kit (Sigma). […] The only tumor cell line tested to not be inhibited by GRP78 antagonists was HT29, a colon carcinoma cell line. From our previous data above, we know U87 and D54 have ROR1 expressed on their cell surfaces.
# U87 glioma cells = test: Tumor cell proliferation assay 72 hours, U87; format: cell-based
# Method: as §1
# panel of tumor cells = test: Tumor cell proliferation assay 72 hours, whole panel; format: cell-based; settings: in words
# Method: as §1
# 293 Kidney fibroblasts = test: Proliferation assay 72 hours, 293 kidney normal cells; format: cell-based, human
# Method: as §1
# [5] = test system: GRP78 treated dendritic cells; test: Tolerogenic phenotype of GRP78 treated dendritic cells (flow cytometry, IL-10 ELISA); format: cell-based, human; settings: for maturity marker CD86 on DCs exposed to GRP78/LPS: FIG. 13; for activity for reversing the tolerogenic phenotype of dendritic cells induced by GRP78: dose dependent, in words; for potency in blocking B7H3 on DCs exposed to GRP78, relative to K5: flow cytometry, FIG. 9A
# Method: Consequently surface GRP78 binding on tumor cells leads to chemo-resistance and proliferation. […] Immature dendritic cells were differentiated from isolated CD14^+ myeloid cells with the addition of GM-CSF and IL-4 for 7 days. GRP78 (10 μg/ml) was added to the cells to produce a tolerogenic phenotype showing up regulation of PD-L1, B7H4, B7H3, IL-10 and down regulation of CD86. Therefore our GRP78 antagonists can potently block the activity of GRP78 on dendritic cells.
# FIG. 9A-9C illustrates increasing amounts of the GRP78 antagonists result in blocking GRP78 which reduces checkpoint protein expression on DCs. A tolerogenic dendritic cell phenotype is induced by soluble GRP78 binding. Myeloid CD14+ cells were co-stimulated for 7 days with IL-4, and GMCSF. On day 5 LPS along with or without GRP78 and GRP78 antagonists were added. On day 8, dendritic cells were fixed and stained for flow cytometry. The percent of B7H3, PD-L1, CD86 was measured by flowcytometry and compared to GRP78 untreated dendritic cells.
# To determine if GRP78 antagonists can block the tolerogenic phenotype of GRP78 treated dendritic cells, we differentiated immature dendritic cells. From 20 million human pooled PBMCs (AllCells), we isolated about 2.5 million CD14+ monocytes using positive selection with a pluribead CD14 kit (Pluriselect). […] From our multiple studies, we can isolate about 2.5 million CD14+ monocytes from 20 million PBMCs using positive selection with pluribeads (Pluriselect). […] On day 8, cells were fixed and aliquots stained at 4 C for various tolerogenic DC markers: PD-I([…]), B7H4, […], CD86, CD14, ROR1. Stained cells were analyzed byflow cytometry analysis. All antibodies for the DC markers were PE labeled from BD PharMingen. The cytokine, IL-10 (ENZO Life Sciences), was assayed by ELISA (Sigma). Negative controls wells were with GRP78 and positive controls are without GRP78 but with LPS. […] All of these antagonists decreased expression of PD-L1, B7H4, B7H3, and IL-10 from mature dendritic cells and increased expression of the maturity marker CD86 on dendritic cells (FIGS. 9A-9C).
# [6] = test system: Calu 6 lung carcinoma cells; test: Tumor cell proliferation assay 72 hours, Calu 6; format: cell-based
# Method: as §1
# [7] = test system: HT29 colon carcinoma cells; test: Tumor cell proliferation assay 72 hours, HT29; format: cell-based
# Method: as §1
# D54 glioma cells = test: Tumor cell proliferation assay 72 hours, D54; format: cell-based
# Method: as §1
# ROR1 binding to GRP78 = molecular target: T2, ROR1 binding to GRP78 (Homo sapiens, UniProt P11021); test: Immunoprecipitation of ROR1 using GRP78-Biotin from D54 glioma cell lysate; settings: D54 glioma cell-surface lysate, 100 nM, FIG. 5
# T2 construct: purchased StressMarq; host or cells: ROR1 is endogenous, from D54 glioma cell lysate
# Description: The use of GRP78/ROR1 antagonists to break immune tolerance for the treatment of resistant cancers represents a major shift in cancer therapies. Few, if any, current anti-cancer therapies have anti-angiogenic, anti-tumor and immune modulatory activities similar to modified ROR1, ROR2, and K5 kringle domains. To understand what pathways could be responsible for these activities in tumor and dendritic cells, we used GRP78 binding and crosslinking pull down studies against the cell surface proteome of D54 glioma cells and dendritic cells. We have identified that ROR1 and ROR2 as a cell GRP78 surface receptor.
# Since the mechanism of action is inconclusive for soluble, surface bound GRP78, we decided to identify the surface receptor for GRP78 on glioma (D54) cells. Using GRP78 (StressMarq) labeled with Biotin (Sigma, Mix-n-Match), pull down experiments were performed. 2×10(6) D54 glioma cells were grown in a T25 cm flask with full DMEM media overnight. The next day the media was removed and the cells were washed with ice cold PBS. To the attached cells ice cold octyl-lysis buffer (Pierce detergent cell lysis kit) was added and the cells were scrapped off and incubated in a tube with gentle agitation at 4 C for 60 minute. The microcentrifuge tube was centrifuged at 12,000×g for 20 minutes. The supernatant was gently removed and placed on ice. […]
# [8] = listed as Kr1(1-91 Active Zone)frag SEQ ID NO: 19
# T1 sequence (P11021 19-654, species assumed): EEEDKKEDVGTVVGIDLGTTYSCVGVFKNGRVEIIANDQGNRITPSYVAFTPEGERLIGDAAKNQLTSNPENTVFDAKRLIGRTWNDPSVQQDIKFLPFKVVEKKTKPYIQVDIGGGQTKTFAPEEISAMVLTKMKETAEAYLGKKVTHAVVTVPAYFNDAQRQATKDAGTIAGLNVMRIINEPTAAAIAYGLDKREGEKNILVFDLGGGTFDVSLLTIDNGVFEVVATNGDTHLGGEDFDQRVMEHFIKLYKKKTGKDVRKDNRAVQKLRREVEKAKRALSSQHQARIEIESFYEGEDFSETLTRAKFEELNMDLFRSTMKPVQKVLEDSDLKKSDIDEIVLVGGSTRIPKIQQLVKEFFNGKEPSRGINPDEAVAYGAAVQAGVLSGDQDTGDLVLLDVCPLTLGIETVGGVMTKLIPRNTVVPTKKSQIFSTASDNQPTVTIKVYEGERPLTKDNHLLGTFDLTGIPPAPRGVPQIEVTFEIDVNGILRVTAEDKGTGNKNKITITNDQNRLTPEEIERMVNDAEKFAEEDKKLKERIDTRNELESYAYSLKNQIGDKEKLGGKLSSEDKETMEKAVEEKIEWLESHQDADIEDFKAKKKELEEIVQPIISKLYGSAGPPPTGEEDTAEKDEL
# T2 sequence (P11021 19-654): as the sequence (P11021 19-654, species assumed) above
molecule,measurement,setting,value
COc1cccc2c1C(=O)c1c(O)c3c(c(O)c1C2=O)C[C@@](O)(C(=O)CO)C[C@@H]3O[C@H]1C[C@H](N)[C@H](O)[C@H](C)O1 [Doxorubicin],IC50,[1],7 nM
same,IC50,[2],2440 nM
same,IC50,[3],7 nM
"Kr1(1-91 Active Zone)frag SEQ ID NO:19: ROR1 kringle domain (amino acids 308-400 ROR1), expressed in 293T cells",binding range to GRP78,GRP78,pM range
same,% Proliferation Inhibition,"[4]; MDA231, 0.1 μg/ml",33 ± 8%
same,% Proliferation Inhibition,"[4]; MDA231, 1 μg/ml",63 ± 12%
same,% Proliferation Inhibition,"[4]; MDA231, 10 μg/ml",86 ± 10%
same,% Proliferation Inhibition,"U87 glioma cells; U87, 0.1 μg/ml",12 ± 7%
same,% Proliferation Inhibition,"U87 glioma cells; U87, 1 μg/ml",45 ± 7%
same,% Proliferation Inhibition,"U87 glioma cells; U87, 10 μg/ml",82 ± 8%
same,inhibition of tumor cell proliferation,panel of tumor cells,potent dose response inhibition
same,potency of inhibition of tumor cell proliferation relative to K5,panel of tumor cells,several fold more potent
same,% Proliferation Inhibition,293 Kidney fibroblasts; 0.1 μg/ml,0 ± 5%
same,% Proliferation Inhibition,293 Kidney fibroblasts; 1 μg/ml,0 ± 6%
same,% Proliferation Inhibition,293 Kidney fibroblasts; 10 μg/ml,0 ± 7%
same,IL-10 expression of tolerogenic dendritic cells,"[5]; 100 nM, FIG. 10",elimination of IL-10 expression
same,maturity marker CD86 on DCs exposed to GRP78/LPS,[5],completely reverses; also recorded: increases in the maturity marker CD86
same,maturity marker CD86 on DCs exposed to GRP78/LPS,[5]; [8],increases in the maturity marker CD86
same,activity for reversing the tolerogenic phenotype of dendritic cells induced by GRP78,[5],potent nM activity
same,activity for reversing the tolerogenic phenotype of dendritic cells induced by GRP78,[5]; [8],reverses
same,"potency in blocking B7H3 on DCs exposed to GRP78, relative to K5",[5],at least 65 times
same,"potency in blocking B7H3 on DCs exposed to GRP78, relative to K5",[5]; [8],more potent
same,percentage of B7H4+ marker on GRP78 treated DCs,"[5]; increasing concentrations, FIGS. 11, 12",decreasing percentages
same,% Proliferation Inhibition,"[6]; Calu 6, 0.1 μg/ml",14 ± 2%
same,% Proliferation Inhibition,"[6]; Calu 6, 1 μg/ml",31 ± 5%
same,% Proliferation Inhibition,"[6]; Calu 6, 10 μg/ml",60 ± 5%
same,% Proliferation Inhibition,"[7]; HT29, 0.1 μg/ml",0 ± 8%
same,% Proliferation Inhibition,"[7]; HT29, 1 μg/ml",10 ± 9%
same,% Proliferation Inhibition,"[7]; HT29, 10 μg/ml",0 ± 5%
same,% Proliferation Inhibition,"D54 glioma cells; D54, 0.1 μg/ml",15 ± 3%
same,% Proliferation Inhibition,"D54 glioma cells; D54, 1 μg/ml",52 ± 6%
same,% Proliferation Inhibition,"D54 glioma cells; D54, 10 μg/ml",85 ± 3%
B1,blocking of immunoprecipitation of ROR1 using GRP78,ROR1 binding to GRP78,not

# From patent publication US10905750B2, “GRP78 antagonist that block binding of receptor tyrosine kinase orphan receptors as immunotherapy anticancer agents” (CREATIVE BIOTHERAPEUTICS, LLC, priority 2017, dated 2021)
